Results on 16 compounds are retold here after US5977386A, “6-thio-substituted paclitaxels” (Bristol-Myers Squibb Company, priority 1997, dated 1999).

Where two headings read alike, the source gives them in different places.

For one series, the system named is M5076 murine sarcoma. Nature of the series: sc M5076 murine sarcoma model, tumor growth delay. It counts as in vivo. The settings on record: sc M5076, iv on days 1, 3, 5, 7, and 9 post-implant, at optimal dose. As to the method:
M5076: Taxane derivatives were tested in the M5076 murine sarcoma model using the general materials and methods described by Rose, W. C. in Anticancer Research 6: 557-562, 1986, for subcutaneous M5076 implants, with the following modifications: treatments were administered intravenously on Days 1, 3, 5, 7, and 9 post-tumor implant using eight mice per treatment and untreated control group. Activity was determined based on an increase in lifespan (as described in the preceding reference) of […], and, in particular, on a delay in tumor growth equivalent to at least 1 gross log cell kill (LCK). The latter was calculated as described in Rose, W. C. and Basler, G. A. in In Vivo 4: 391-396, 1990.
^a Optimal dose (mg/kg/inj) if active, otherwise, maximal tolerated
dose (MTD) or highest dose tested.

Series [1] deals with HCT-116 human colon carcinoma cells. In words: MTS cytotoxicity assay (72 h exposure). It counts as cell-based. As to the method:
Cytoxicity was assessed in HCT-116 human colon carcinoma cells by MTS (3-(4,5-dimethylthiazol-2-yl)-5-(3-carboxymethoxyphenyl)-2-(4-sulphenyl)-2H-tetrazolium, inner salt) assay as reported in T. L. Riss, et. al., "Comparison of MTT, XTT, and a novel tetrazolium compound MTS for in vitro proliferation and chemosensitivity assays.," Mol. Biol. Cell 3 (Suppl.):184a, 1992. Cells were plated at 4,000 cell/well in 96 well microtiter plates and 24 hours later drugs were added and serial diluted. The cells were incubated at 37° for 72 hours at which time the tetrazolium dye, MTS at 333 μg/ml (final concentration), in combination with the electron coupling agent phenazine methosulfate at 25 μM (final concentration) was added. A dehydrogenase enzyme in live cells reduces the MTS to a form that absorbs light at […] which can be quantitated spectrophotometrically. The greater the absorbance the greater the number of live cells. The results are expressed as an IC50, which is the drug concentration required to inhibit cell proliferation (i.e. absorbance at 450 nm) to 50% of that of untreated control cells. The IC50 values for compounds evaluated in this assay are evaluated in Table I.
^1 Cytotoxicity was determined after a 72 h exposure by MTS assay.
On the technique in general: Formazan colour is commonly taken as a measure of viable cells.

Setting [2] is: Homo sapiens, HCT-116, read-out: Cytotoxicity Assay IC50 against HCT 116 Human colon tumor cell line.
[3] abbreviates: Homo sapiens, HCT-116, 72 h, read-out: Cytotoxicity Assay IC50 against HCT 116 Human colon tumor cell line.

Turning to `CC(=O)O[C@H]1C(=O)[C@]2(C)C[C@@H](S)[C@H]3OC[C@@]3(OC(C)=O)[C@H]2[C@H](OC(=O)c2ccccc2)[C@]2(O)C[C@H](OC(=O)[C@H](O)[C@@H](NC(=O)c3ccccc3)c3ccccc3)C(C)=C1C2(C)C` [Compound 13, 7-deoxy-6β-thio-paclitaxel], the “Maximum T-C in LCK (gross log cell kill)” value in the series on M5076 murine sarcoma came to 0.5 LCK. Further, the IC50 – broadly, the concentration needed to halve the response being measured – in series [1] (setting [2]) was determined as 26.1 nM.

As for `CC(=O)O[C@H]1C(=O)[C@]2(C)C[C@@H]([S+]([O-])CC#N)[C@H]3OC[C@@]3(OC(C)=O)[C@H]2[C@H](OC(=O)c2ccccc2)[C@]2(O)C[C@H](OC(=O)[C@H](O)[C@@H](NC(=O)c3ccccc3)c3ccccc3)C(C)=C1C2(C)C` (single isomer, unassigned) [Compound 38, 6b-cyanomethylsulfoxo-7-deoxypaclitaxel], in the series on M5076 murine sarcoma, the “Maximum T-C in LCK (gross log cell kill)” value is reported as 0 LCK. Also, the IC50 in series [1] (setting [3]) worked out at 28 nM.

For `CC(=O)O[C@H]1C(=O)[C@]2(C)C[C@@H](SCC#N)[C@H]3OC[C@@]3(OC(C)=O)[C@H]2[C@H](OC(=O)c2ccccc2)[C@]2(O)C[C@H](OC(=O)[C@H](O)[C@@H](NC(=O)c3ccccc3)c3ccccc3)C(C)=C1C2(C)C` [Compound 36, 6b-thioacetonitrile-7-deoxypaclitaxel], the “Maximum T-C in LCK (gross log cell kill)” value in the series with M5076 murine sarcoma is 1.1 LCK. Moreover, in series [1] (setting [3]), the IC50 is 4.4 nM.

As for `CSCS[C@@H]1C[C@@]2(C)C(=O)[C@H](OC(C)=O)C3=C(C)[C@@H](OC(=O)[C@H](O)[C@@H](NC(=O)c4ccccc4)c4ccccc4)C[C@@](O)([C@@H](OC(=O)c4ccccc4)[C@@H]2[C@]2(OC(C)=O)CO[C@H]12)C3(C)C` [Compound 46, 6-b-methylthiomethylthio ether-7-deoxy paclitaxel], the “Maximum T-C in LCK (gross log cell kill)” value with M5076 murine sarcoma amounted to 0 LCK. In addition, in series [1] (setting [3]), the IC50 is 3.5 nM.

With `CCS[C@@H]1C[C@@]2(C)C(=O)[C@H](OC(C)=O)C3=C(C)[C@@H](OC(=O)[C@H](O)[C@@H](NC(=O)c4ccccc4)c4ccccc4)C[C@@](O)([C@@H](OC(=O)c4ccccc4)[C@@H]2[C@]2(OC(C)=O)CO[C@H]12)C3(C)C` [Compound 30, 7-deoxy-6b-thioethylpaclitaxel], the “Maximum T-C in LCK (gross log cell kill)” value in the series on M5076 murine sarcoma amounted to 0.4 LCK. The IC50 in series [1] (setting [3]) was 0.9 nM.

Consider `C=CS[C@@H]1C[C@@]2(C)C(=O)[C@H](OC(C)=O)C3=C(C)[C@@H](OC(=O)[C@H](O)[C@@H](NC(=O)c4ccccc4)c4ccccc4)C[C@@](O)([C@@H](OC(=O)c4ccccc4)[C@@H]2[C@]2(OC(C)=O)CO[C@H]12)C3(C)C` [Compound 50, 6b-thioethenyl-7-deoxypaclitaxel], for which the “Maximum T-C in LCK (gross log cell kill)” value in the series on M5076 murine sarcoma came out at 1.0 LCK. The IC50 in series [1] (setting [3]) is 0.3 nM.

Regarding `CC(=O)O[C@H]1C(=O)[C@]2(C)C[C@@H]([S+](C)[O-])[C@H]3OC[C@@]3(OC(C)=O)[C@H]2[C@H](OC(=O)c2ccccc2)[C@]2(O)C[C@H](OC(=O)[C@H](O)[C@@H](NC(=O)c3ccccc3)c3ccccc3)C(C)=C1C2(C)C` (single isomer, unassigned) [Compound 19a, 7-deoxy-6β-methyl sulfoxide-paclitaxel], the IC50 in series [1] (4320 min, read-out: Cytotoxicity Assay IC50 against HCT 116 Human colon tumor cell line) was more than 111 nM.

`CCOC(=O)N[C@@H](c1ccccc1)[C@@H](O)C(=O)O[C@H]1C[C@@]2(O)[C@@H](OC(=O)c3ccccc3)[C@@H]3[C@]4(OC(C)=O)CO[C@@H]4[C@H](SC)C[C@@]3(C)C(=O)[C@H](OC(C)=O)C(=C1C)C2(C)C` [Compound 28, 3'-NH-ethylcarbonate-7-deoxy-6b-thiomethylpaclitaxel]: in the series on M5076 murine sarcoma, the “Maximum T-C in LCK (gross log cell kill)” value worked out at 1.1 LCK. Moreover, the IC50 in series [1] (setting [3]) is 0.7 nM.

As for `CC(=O)O[C@H]1C(=O)[C@]2(C)C[C@@H](SCc3ccccc3)[C@H]3OC[C@@]3(OC(C)=O)[C@H]2[C@H](OC(=O)c2ccccc2)[C@]2(O)C[C@H](OC(=O)[C@H](O)[C@@H](NC(=O)c3ccccc3)c3ccccc3)C(C)=C1C2(C)C` [Compound 32, 6-b-thiobenzyl-7-deoxypaclitaxel], the IC50 in series [1] (setting [3]) turned out to be 5.27 nM.

`COCS[C@@H]1C[C@@]2(C)C(=O)[C@H](OC(C)=O)C3=C(C)[C@@H](OC(=O)[C@H](O)[C@@H](NC(=O)c4ccccc4)c4ccccc4)C[C@@](O)([C@@H](OC(=O)c4ccccc4)[C@@H]2[C@]2(OC(C)=O)CO[C@H]12)C3(C)C` [Compound 48]: in the series with M5076 murine sarcoma, the “Maximum T-C in LCK (gross log cell kill)” value is 0.2 LCK. Moreover, the IC50 in series [1] (setting [3]) amounted to 1.9 nM.

With `CS[C@@H]1C[C@@]2(C)C(=O)[C@H](OC(C)=O)C3=C(C)[C@@H](OC(=O)[C@H](O)[C@@H](NC(=O)OC(C)(C)C)c4ccccc4)C[C@@](O)([C@@H](OC(=O)c4ccccc4)[C@@H]2[C@]2(OC(C)=O)CO[C@H]12)C3(C)C` [Compound 24, 3'-NH-Boc-7-deoxy-6b-thiomethylpaclitaxel], the “Maximum T-C in LCK (gross log cell kill)” value in the series with M5076 murine sarcoma came to 1.2 LCK. Besides, in series [1] (setting [3]), the IC50 amounted to 0.2 nM.

On to `CC(=O)O[C@H]1C(=O)[C@]2(C)C[C@@H]([S+](C)[O-])[C@H]3OC[C@@]3(OC(C)=O)[C@H]2[C@H](OC(=O)c2ccccc2)[C@]2(O)C[C@H](OC(=O)[C@H](O)[C@@H](NC(=O)OC(C)(C)C)c3ccccc3)C(C)=C1C2(C)C` (single isomer, unassigned) [Compound 26, 3'-NH-Boc-7-deoxy-6b-methylsulfoxidepaclitaxel], for which, in series [1] (setting [3]), the IC50 is 0.66 nM.

Regarding `CC(=O)O[C@H]1C(=O)[C@]2(C)C[C@@H](SC(C)=O)[C@H]3OC[C@@]3(OC(C)=O)[C@H]2[C@H](OC(=O)c2ccccc2)[C@]2(O)C[C@H](OC(=O)[C@H](O)[C@@H](NC(=O)c3ccccc3)c3ccccc3)C(C)=C1C2(C)C` [Compound 11, 7-deoxy-6β-thioacetoxypaclitaxel], the “Maximum T-C in LCK (gross log cell kill)” value with M5076 murine sarcoma turned out to be 0.5 LCK. Besides, the IC50 in series [1] (setting [3]) was 1.84 nM.

With `CC(=O)O[C@H]1C(=O)[C@]2(C)C[C@@H](SCCO)[C@H]3OC[C@@]3(OC(C)=O)[C@H]2[C@H](OC(=O)c2ccccc2)[C@]2(O)C[C@H](OC(=O)[C@H](O)[C@@H](NC(=O)c3ccccc3)c3ccccc3)C(C)=C1C2(C)C` [Compound 15, 7-deoxy-6β-(2-hydroxyethyl)thio-paclitaxel], in the series on M5076 murine sarcoma, the “Maximum T-C in LCK (gross log cell kill)” value is given as 0.3 LCK. The half-inhibitory concentration (IC50) in series [1] (setting [2]) was 1.8 nM.

Regarding `CS[C@@H]1C[C@@]2(C)C(=O)[C@H](OC(C)=O)C3=C(C)[C@@H](OC(=O)[C@H](O)[C@@H](NC(=O)c4ccccc4)c4ccccc4)C[C@@](O)([C@@H](OC(=O)c4ccccc4)[C@@H]2[C@]2(OC(C)=O)CO[C@H]12)C3(C)C` [Compound 9, 7-deoxy-6β-thiomethylpaclitaxel], the “Maximum T-C in LCK (gross log cell kill)” value with M5076 murine sarcoma is listed as 1.1 LCK. For the same compound, in series [1] (setting [3]), the IC50 was found to be 1.1 nM.

On to `CC(=O)O[C@H]1C(=O)[C@]2(C)C[C@@H](SCC(N)=O)[C@H]3OC[C@@]3(OC(C)=O)[C@H]2[C@H](OC(=O)c2ccccc2)[C@]2(O)C[C@H](OC(=O)[C@H](O)[C@@H](NC(=O)c3ccccc3)c3ccccc3)C(C)=C1C2(C)C` [Compound 44, 7-deoxy-6b-thioacetamidepaclitaxel], for which the “Maximum T-C in LCK (gross log cell kill)” value with M5076 murine sarcoma is 0 LCK. Besides, the IC50 in series [1] (setting [3]) came to 11 nM.
